This note sets out measurements from US10508086B2 (CANCER RESEARCH TECHNOLOGY LIMITED, priority 2014, dated 2019).

One assay deals with PARG in HeLa cell line (Homo sapiens (Human), UniProt Q86W56). Kind of assay: PARG cell assay (nuclear PAR chains after MMS, immunofluorescence). The format is cell-based. To be noted: HeLa cells, MMS 50 μg/mL; read-out: PARG Cell IC50 Geomean. On the procedure: This method is based on the detection of endogenous levels of poly (ADP) ribose chains present in the nucleus of HeLa cell line using indirect immunofluorescence. MMS stimulation increases PAR chains for up to 25 mins. After that point, PARG is active and breaks down the PAR chains, until by one hour after stimulation no PAR chains are detectable. Inhibition of PARG maintains PAR chains.
Chain of PARG in HeLa cell line (Q86W56 whole entry): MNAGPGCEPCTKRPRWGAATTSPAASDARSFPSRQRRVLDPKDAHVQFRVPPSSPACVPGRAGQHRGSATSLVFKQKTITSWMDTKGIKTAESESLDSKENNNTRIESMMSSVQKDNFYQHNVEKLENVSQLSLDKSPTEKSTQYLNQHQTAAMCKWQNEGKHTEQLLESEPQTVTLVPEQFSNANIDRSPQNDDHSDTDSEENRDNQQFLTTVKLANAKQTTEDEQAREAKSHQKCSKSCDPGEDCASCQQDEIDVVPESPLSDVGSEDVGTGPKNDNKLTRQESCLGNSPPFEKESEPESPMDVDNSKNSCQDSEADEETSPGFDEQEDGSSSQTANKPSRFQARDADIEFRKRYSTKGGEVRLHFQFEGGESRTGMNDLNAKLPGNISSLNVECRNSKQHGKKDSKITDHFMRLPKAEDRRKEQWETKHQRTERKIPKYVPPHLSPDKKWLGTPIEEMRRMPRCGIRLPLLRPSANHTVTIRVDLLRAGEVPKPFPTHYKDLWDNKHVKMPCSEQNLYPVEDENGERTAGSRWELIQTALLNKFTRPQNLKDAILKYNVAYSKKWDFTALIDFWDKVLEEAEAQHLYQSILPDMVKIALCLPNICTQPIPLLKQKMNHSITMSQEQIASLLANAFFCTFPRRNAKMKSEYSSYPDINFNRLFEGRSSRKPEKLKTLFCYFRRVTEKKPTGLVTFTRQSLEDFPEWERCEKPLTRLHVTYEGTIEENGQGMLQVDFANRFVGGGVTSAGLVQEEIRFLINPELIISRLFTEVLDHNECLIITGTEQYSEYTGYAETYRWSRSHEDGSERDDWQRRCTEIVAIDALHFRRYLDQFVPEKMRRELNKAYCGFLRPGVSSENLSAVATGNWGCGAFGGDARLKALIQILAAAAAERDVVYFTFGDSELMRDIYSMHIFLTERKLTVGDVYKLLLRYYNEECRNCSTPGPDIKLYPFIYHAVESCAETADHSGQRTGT
Briefly, following compound treatment and treatment with the DNA damaging agent methylmethanesulfonate (MMS), the cell monolayer is fixed, then permeabilised and incubated with a mouse monoclonal antibody raised against multimers of poly(ADP) ribose. After an overnight incubation, excess antibody is removed by washing and an Alexafluor 488-linked secondary antibody which recognises the mouse monoclonal is added together with a nuclear stain (Hoechst 33342). Images of the cells are then captured and analysed on a High Content Screening platform and the total intensity of the nuclear fluorescent signal at […] is quantified.
HeLa cells, seeded in 384-well plates, at 4000/well in 30 μL RPMI 1640 media, supplemented with 10% FBS and 2 mM Glutamax, were incubated overnight at 37° C., 5% CO2.
The following day, cells were dosed in quadruplicate with compound (10 point dose response) and incubated for 1 h at 37° C., 5% CO2.
At the end of the 1 h dosing period, MMS was added to duplicates at a final concentration of 50 μg/mL, for a further hour.
Media was tipped off and the cells fixed with 50 μL ice-cold 95% MetOH/PBS for 15 mins at −20° C. Following a PBS wash, 50 μL PBS/0.1% Triton was added to the cells for 20 mins. Following another PBS wash, anti-PAR antibody (Calbiochem AM80) was diluted 1:4000 in a buffer (PBS+0.5% FBS+0.05% Tween20) and added to the cells and incubated overnight at 4° C.
The following day, cells were washed three times with PBS and then incubated for 1 hr with secondary antibody (Alexa Fluor® 488 goat anti mouse IgG (H+L)) diluted 1:1000 and Hoechst diluted 1:5000 in buffer (5% FBS in PBS+0.05% Tween20).
Cells were washed three times with PBS and the plate sealed with a light-proof seal.
Images of the cells were captured on a ThermoFisher Celllnsight and the mean total intensity of spots fluorescent at 485 nm in the nucleus was reported.

The target of a further assay is Human Full Length PARG (Homo sapiens (Human), UniProt Q86W56). Kind of assay: PARG in vitro enzyme assay (TR-FRET). The format is biochemical. To be noted: read-out: PARG_EC50_ENZYME. A digest of the protocol:
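Full-length human PARG ([…]) incubated with ribosylated PARP substrate (4.5 nM) for 10 min at room temperature in Tris pH 7.4 buffer with EDTA, EGTA, DTT, KCl. Detection by TR-FRET using anti-6HIS XL665 (14 nM final) and streptavidin europium cryptate (0.75 nM final) after 60 min; Em665/Em620 ratio converted to percent inhibition.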

Chain of Human Full Length PARG (Q86W56 whole entry): as above

As to `COCCCn1c(=O)n(-c2nc(C)ns2)c2cc(S(=O)(=O)NC3(CF)CC3)ccc21` [Example 185, N-[1-(Fluoromethyl)cyclopropyl]-1-(3-methoxypropyl)-3-(3-methyl-1,2,4-thiadiazol-5-yl)-2-oxo-benzimidazole-5-sulfonamide], the IC50 on PARG in HeLa cell line was determined as 740 nM. The EC50 at Human Full Length PARG came to 3780 nM.
As for `Cc1nsc(-n2c(=O)n(CCN(C)C)c3ccc(S(=O)(=O)NC4(CF)CC4)cc32)n1` [Example 186, 1-[2-(Dimethylamino)ethyl]-N-[1-(fluoromethyl)cyclopropyl]-3-(3-methyl-1,2,4-thiadiazol-5-yl)-2-oxo-benzimidazole-5-sulfonamide], on PARG in HeLa cell line, the IC50 turned out to be 3120 nM. Further, the EC50 on Human Full Length PARG was 4230 nM.
For `COCCCn1c(=O)n(-c2nnc(C)s2)c2cc(S(=O)(=O)NC3(CF)CC3)ccc21` [Example 187, N-[1-(Fluoromethyl)cyclopropyl]-1-(3-methoxypropyl)-3-(5-methyl-1,3,4-thiadiazol-2-yl)-2-oxo-benzimidazole-5-sulfonamide], in that order: 201 nM and 427 nM.
On to `Cc1nnc(-n2c(=O)n(CCN(C)C)c3ccc(S(=O)(=O)NC4(CF)CC4)cc32)s1` [Example 188, 1-[2-(Dimethylamino)ethyl]-N-[1-(fluoromethyl)cyclopropyl]-3-(5-methyl-1,3,4-thiadiazol-2-yl)-2-oxo-benzimidazole-5-sulfonamide], for which the IC50 on PARG in HeLa cell line came to 347 nM. Besides, the EC50 at Human Full Length PARG is 610 nM.
Take `Cc1nnc(-n2c(=O)n(C)c3ccc(S(=O)(=O)NC4(C)CC4)cc32)o1` [Example 189, 1-Methyl-N-(1-methylcyclopropyl)-3-(5-methyl-1,3,4-oxadiazol-2-yl)-2-oxo-benzimidazole-5-sulfonamide]: the IC50 on PARG in HeLa cell line came out at 1230 nM. Also, the EC50 on Human Full Length PARG is 1790 nM.
Turning to `CCn1c(=O)n(-c2nnc(C)o2)c2cc(S(=O)(=O)NC3(C)CC3)ccc21` [Example 190, 1-Ethyl-N-(1-methylcyclopropyl)-3-(5-methyl-1,3,4-oxadiazol-2-yl)-2-oxo-benzimidazole-5-sulfonamide], the IC50 at PARG in HeLa cell line came to 404 nM. For the same molecule, the EC50 at Human Full Length PARG is 934 nM.
On the same counts, the results for `Cc1nnc(-n2c(=O)n(CCF)c3ccc(S(=O)(=O)NC4(C)CC4)cc32)o1` [Example 191, 1-(2-Fluoroethyl)-N-(1-methylcyclopropyl)-3-(5-methyl-1,3,4-oxadiazol-2-yl)-2-oxo-benzimidazole-5-sulfonamide] are 807 nM and 967 nM.
For `Cc1nnc(-n2c(=O)[nH]c3cc(F)c(S(=O)(=O)NC4(C)CC4)cc32)o1` [Example 192, 6-Fluoro-N-(1-methylcyclopropyl)-3-(5-methyl-1,3,4-oxadiazol-2-yl)-2-oxo-1H-benzimidazole-5-sulfonamide], in that order: 11700 nM and 1460 nM.
For `C#CCn1c(=O)n(-c2nnc(C(F)F)s2)c2cc(S(=O)(=O)NC3(CF)CC3)ccc21` [Example 193, 3-[5-(Difluoromethyl)-1,3,4-thiadiazol-2-yl]-N-[1-(fluoromethyl)cyclopropyl]-2-oxo-1-prop-2-ynyl-benzimidazole-5-sulfonamide], in that order: 40 nM and 153 nM.
For the molecule `Cc1nnc(-n2c(=O)[nH]c3cc(F)c(S(=O)(=O)NC4(CF)CC4)cc32)o1` [Example 194, 6-Fluoro-N-[1-(fluoromethyl)cyclopropyl]-3-(5-methyl-1,3,4-oxadiazol-2-yl)-2-oxo-1H-benzimidazole-5-sulfonamide], the IC50 on PARG in HeLa cell line was more than 30000 nM. Moreover, the EC50 on Human Full Length PARG turned out to be 1240 nM.
In the case of `Cn1c(=O)n(-c2nnc(C(F)F)o2)c2cc(S(=O)(=O)NC3(C)CC3)ccc21` [Example 195, 3-[5-(Difluoromethyl)-1,3,4-oxadiazol-2-yl]-1-methyl-N-(1-methylcyclopropyl)-2-oxo-benzimidazole-5-sulfonamide], the IC50 on PARG in HeLa cell line turned out to be 457 nM. Further, at Human Full Length PARG, the EC50 stood at 1010 nM.
For `Cn1c(=O)n(-c2nnc(C(F)F)o2)c2cc(S(=O)(=O)NC3(CF)CC3)ccc21` [Example 196, 3-[5-(Difluoromethyl)-1,3,4-oxadiazol-2-yl]-N-[1-(fluoromethyl)cyclopropyl]-1-methyl-2-oxo-benzimidazole-5-sulfonamide], in that order: 469 nM and 789 nM.
For `Cc1nnc(-n2c(=O)n(C)c3cc(F)c(S(=O)(=O)NC4(C)CC4)cc32)o1` [Example 197, 6-Fluoro-1-methyl-N-(1-methylcyclopropyl)-3-(5-methyl-1,3,4-oxadiazol-2-yl)-2-oxo-benzimidazole-5-sulfonamide], in that order: 538 nM and 759 nM.
On to `Cc1nnc(-n2c(=O)n(CCF)c3cc(F)c(S(=O)(=O)NC4(C)CC4)cc32)o1` [Example 198, 6-Fluoro-1-(2-fluoroethyl)-N-(1-methylcyclopropyl)-3-(5-methyl-1,3,4-oxadiazol-2-yl)-2-oxo-benzimidazole-5-sulfonamide], for which the IC50 on PARG in HeLa cell line amounted to 297 nM. For the same molecule, on Human Full Length PARG, the EC50 amounted to 419 nM.
For the molecule `CCn1c(=O)n(-c2nnc(C(F)F)o2)c2cc(S(=O)(=O)NC3(C)CC3)c(F)cc21` [Example 199, 3-[5-(Difluoromethyl)-1,3,4-oxadiazol-2-yl]-1-ethyl-6-fluoro-N-(1-methylcyclopropyl)-2-oxo-benzimidazole-5-sulfonamide], the IC50 at PARG in HeLa cell line was determined as 145 nM. The EC50 on Human Full Length PARG came out at 314 nM.
On the same counts, the results for `CCn1c(=O)n(-c2nnc(C(F)F)o2)c2cc(S(=O)(=O)NC3(C)CC3)ccc21` [Example 201, 3-[5-(Difluoromethyl)-1,3,4-oxadiazol-2-yl]-1-ethyl-N-(1-methylcyclopropyl)-2-oxo-benzimidazole-5-sulfonamide] are 189 nM and 759 nM.
Turning to `CCn1c(=O)n(-c2nnc(C(F)F)o2)c2cc(S(=O)(=O)NC3(CF)CC3)ccc21` [Example 202, 3-[5-(Difluoromethyl)-1,3,4-oxadiazol-2-yl]-1-ethyl-N-[1-(fluoromethyl)cyclopropyl]-2-oxo-benzimidazole-5-sulfonamide], on PARG in HeLa cell line, the IC50 turned out to be 240 nM. Besides, the EC50 on Human Full Length PARG was 421 nM.
For `COCCn1c(=O)n(-c2ccc(C)nn2)c2cc(S(=O)(=O)NC3(CF)CC3)c(F)cc21` [Example 203, 6-Fluoro-N-[1-(fluoromethyl)cyclopropyl]-1-(2-methoxyethyl)-3-(6-methylpyridazin-3-yl)-2-oxo-benzimidazole-5-sulfonamide], the IC50 on PARG in HeLa cell line was 3700 nM. The EC50 at Human Full Length PARG stood at 4830 nM.
In the case of `Cc1ccc(-n2c(=O)n(C)c3cc(F)c(S(=O)(=O)NC4(CF)CC4)cc32)nn1` [Example 204, 6-Fluoro-N-[1-(fluoromethyl)cyclopropyl]-1-methyl-3-(6-methylpyridazin-3-yl)-2-oxo-benzimidazole-5-sulfonamide], the IC50 at PARG in HeLa cell line turned out to be 4230 nM. Also, the EC50 at Human Full Length PARG worked out at 6190 nM.
As for `Cc1ccc(-n2c(=O)n(C)c3cc(F)c(S(=O)(=O)NC4(C)CC4)cc32)nn1` [Example 205, 6-Fluoro-1-methyl-N-(1-methylcyclopropyl)-3-(6-methylpyridazin-3-yl)-2-oxo-benzimidazole-5-sulfonamide], the IC50 at PARG in HeLa cell line was found to be 5760 nM. In addition, the EC50 at Human Full Length PARG came out at 6690 nM.

As a reminder, the IC50 is the concentration at which inhibition is half-maximal.
